Test results: patent US4816471A, “Substituted heterocyclic benzamides, methods of preparing them and their application as anti-emetics” (Societe d'Etudes Scientifiques et Industrielles de …, priority 1978, dated 1989)
Structures can show the parent of a compound that is named as a salt.

Key:
[1] = tested on: anti-emetic power relative to apomorphine in dogs; test: anti-emetic power relative to apomorphine in dogs by the method of Chen and Ensor (subcutaneous administration); assay type: in vivo; conditions: Canis lupus familiaris, sc, Table 1, s.c. 30 minutes before apomorphine 100 ug/kg s.c.
Protocol: (§1) The pharmacodynamic tests on the compounds of this invention, and particularly a study of their anti-emetic power have shown strong activity on the nervous system as apomorphine antagonists. […] In accordance with the above-mentioned procedures, the compounds of the invention were administered subcutaneously 30 minutes before the administration of apomorphine, which was administered subcutaneously in a dose of 100 ug/kg.

[2] = tested on: anti-emetic power relative to apomorphine in dogs; test: anti-emetic ED50 under oral administration (procedure of Example 29); assay type: in vivo; conditions: Canis lupus familiaris, Table 2
Protocol: as §1
Compounds SLC-036, 77205 and 77149 are disclosed in U.S. Pat. No. 4,172,143 for comparison purposes, as Examples 10, 33 and 37 therein. The results for those compounds are reported in Table IX of the '143 Patent and are believed to represent results from oral administration.
Pharmacological tests were carried out under oral administration to determine anti-emetic ED50 in accordance with the procedure of Example 29 with the following results: […]

[3] = acute toxicity in the mouse; conditions: in vivo
Source text: The acute toxicity of the compounds of the invention has been studied in the mouse. The LD50 's are set out in the following Table 3. […] This characteristic is highly desirable because the possibility of toxic effects due to the administration of therapeutic doses is thereby minimized.

[4] = tested on: chewing stereotypes induced by apomorphine; test: antagonism to chewing stereotypes induced by apomorphine in rats, method of Janssen; assay type: in vivo; conditions: Table 4, apomorphine 1.25 mg/kg; for ED50: Rattus norvegicus, sc; for % antagonism to chewing stereotypes induced by apomorphine: s.c., at 200
Protocol: The neurological activity of the compounds of the invention was compared to the activity of prior art compounds in U.S. Pat. No. 4,172,143 and with a standard in this field, Sulpiride, N-[(1-ethylpyrrolidinyl-2)methyl]-2-methoxy-5 sulphamoyl benzamide. The compounds were tested for antagonism to chewing stereotypes induced by apomorphine (1.25 mg/kg in rats, according to the method of Janssen in Arzn. Forsch. 1960-10, 1003-5, under subcutaneous administration and the results were as follows: […]

[5] = tested on: chewing stereotypes induced by dexamphetamine; test: antagonism to chewing stereotypes induced by dexamphetamine in rats, Janssen's method; assay type: in vivo; conditions: Table 5, dexamphetamine 10 mg/kg; for ED50: Rattus norvegicus, sc; for % antagonism to chewing stereotypes induced by dexamphetamine: s.c., at 100 mg/kg
Protocol: The compounds were also tested for antagonism to chewing stereotypes induced by dexamphetamine (10 mg/kg) in rats, by Janssen's method in Arzn. Forsch. 1961, 11, 932-938 under subcutaneous administration with the following results: […]

[6] = tested on: anti-emetic power relative to apomorphine in dogs; conditions: cited from earlier work; for ED50 (Prior Art Compounds, Results Reported in U.S. Pat No. 4,172,143): Table 1, method of administration believed oral; for ED50 (oral): Table 2, prior art compounds, same values as reported in U.S. Pat. No. 4,172,143
[7] = tested on: biting sterotypes induced by apomorphine; test: potentiation of biting sterotypes induced by apomorphine in mice, Pedeson's method; assay type: in vivo; conditions: Table 6, apomorphine 10 mg/kg, interperitoneal; for ED50: Mus musculus, ip
Protocol: The compounds were also tested for potentiation of biting sterotypes induced by apomorphine (10 (mg/kg) in mice, under interperitoneal administration in accordance with Pedeson's method in Brit J. Pharmacol. 1968, 34 (1), 219-220 with the following results: […]

solubility in water = assay type: physicochemical; conditions: crystals, base
[8] = tested on: stereotypes induced by apomorphine; test: potentiation of stereotypes induced by apomorphine in rats; assay type: in vivo; conditions: Table 7, apomorphine 0.25 mg/kg, intraperitoneal
Protocol: The compound of Example 2 was tested against sulpiride for potentiation of stereotypes induced by apomorphine (0.25 mg/kg) in rats under intraperitoneal administration with the following results: […]

Structure (SMILES) | ED50 [1] | LD50 ([3]; I.V. (intravenous)) | LD50 ([3]; P.O. (oral)) | LD50 ([3]; ip, I.P. (intraperitoneal)) | LD50 ([3]; sc, S.C. (subcutaneous)) | ED50 [4] | ED50 [5] | further results
CNS(=O)(=O)c1cc(OC)c(OC)c(C(=O)NCC2CCCN2CC2CC2)c1 (centres unmarked) [Example 5, N-(1-cyclopropylmethyl 2-pyrrolidinylmethyl)-2,3-dimethoxy 5-methylsulphamoyl benzamide] | 0.0005 mg/kg |  |  |  |  |  |  | 
COc1ccc(S(N)(=O)=O)cc1C(=O)NCC1CCCN1CC1=CCCCC1 (centres unmarked) [Example 14, N-[1(1-cyclohexenylmethyl) 2-pyrrolidinylmethyl]2-methoxy 5-sulphamoyl benzamide] | 0.00085 mg/kg | 82.5 to 85.5 mg/kg | 525 to 542 mg/kg | 294 to 317 mg/kg | 630 to 640 mg/kg | 16.4 mg/kg | 10 mg/kg | ED50 [2]: 0.0012 mg/kg
COc1ccc(S(N)(=O)=O)cc1C(=O)NCC1CCCN1CC1CCCCC1 (centres unmarked) [Example 77205, N--(1cyclohexylmethyl 2pyrrolidinylmethyl)-2-methoxy-5-sulphamoyl benzamide, reference compound] |  |  |  |  |  |  | 19 mg/kg | % antagonism to chewing stereotypes induced by apomorphine [4]: 20%; ED50 (Prior Art Compounds, Results Reported in U.S. Pat No. 4,172,143) [6]: 0.014 mg/kg; ED50 (oral) [6]: 0.014 mg/kg
CCS(=O)(=O)c1cc(OC)c(OC)c(C(=O)NCC2CCCN2CC2CC2)c1 (centres unmarked) [Example 16, N-(1-cyclopropylmethyl 2-pyrrolidinylmethyl) 2,3-dimethoxy 5-ethylsulphonylbenzamide, hydrochloride] |  | 92.9 to 97.2 mg/kg | 588 to 598 mg/kg | 303 to 338 mg/kg | 595 to 597 mg/kg | 3.2 mg/kg | 1.34 mg/kg | ED50 [2]: 0.00023 mg/kg; ED50 [7]: 0.25 mg/kg
COc1cc(S(N)(=O)=O)cc(C(=O)NCC2CCCN2CC2CC2)c1OC (centres unmarked) [Example 4, N-(1-cyclopropylmethyl-2-pyrrolidinylmethyl)-2,3-dimethoxy-5-sulphamoyl benzamide] | 0.0022 mg/kg | 60 to 64.5 mg/kg | 2280 mg/kg | 372 to 403 mg/kg | 930 mg/kg |  |  | solubility in water (solubility in water): insoluble
CCN1CCCC1CNC(=O)c1cc(S(N)(=O)=O)ccc1OC (centres unmarked) [Sulpiride, N-[(1-ethylpyrrolidinyl-2)methyl]-2-methoxy-5 sulphamoyl benzamide, reference compound] |  |  |  |  |  |  |  | % antagonism to chewing stereotypes induced by apomorphine [4]: 0%; % antagonism to chewing stereotypes induced by dexamphetamine [5]: 0%; % potentiation of biting sterotypes induced by apomorphine ([7]; at 4 mg/kg): 12%; % potentiation of stereotypes induced by apomorphine ([8]; at 8 mg/kg): 30%
CCS(=O)(=O)c1cc(C(=O)NCC2CCCN2CC2=CCCC2)c(OC)cc1N (centres unmarked) [Example 10, N-(1-cyclopentenylmethyl 2-pyrrolidinylmethyl)-2-methoxy 4-amino 5-ethylsulphonyl benzamide] | 0.0013 mg/kg | 41.8 to 42 mg/kg | 980 to 990 mg/kg | 204 to 212 mg/kg | 330 to 360 mg/kg |  | 14 mg/kg | 
CCS(=O)(=O)c1cc(C(=O)NCC2CCCN2CC2=CCCCC2)c(OC)cc1N (centres unmarked) [Example 11, N-[1-(1-cyclohexenylmethyl)-2-pyrrolidinylmethyl]-2-methoxy 4-amino 5-ethylsulphonyl benzamide, phosphate] | 0.00057 mg/kg | 29.5 to 31.8 mg/kg | 510 to 555 mg/kg | 180 to 181 mg/kg | 343 to 360 mg/kg | 13.7 mg/kg | 5.4 mg/kg | 
CNS(=O)(=O)c1cc(C(=O)NCC2CCCN2CC2CC2)c(OC)cc1N (centres unmarked) [Example 3, N-(1-cyclopropylmethyl 2-pyrrolidinylmethyl)-2-methoxy 4-amino 5-methylsulphamoyl benzamide] | 0.0004 mg/kg |  |  |  |  |  |  | 
CNS(=O)(=O)c1ccc(OC)c(C(=O)NCC2CCCN2CC2=CCCCCC2)c1 (centres unmarked) [Example 13, N-(1-cycloheptenylmethyl 2-pyrrolidinylmethyl) 2-methoxy 5-methylsulphamoylbenzamide] | 0.0005 mg/kg | 45.5 to 48 mg/kg | 312 to 330 mg/kg | 128 to 140 mg/kg | 322 to 336 mg/kg | 1.5 mg/kg | 0.54 mg/kg | 
CNS(=O)(=O)c1cc(OC)c(OC)c(C(=O)NCC2CCCN2CC2=CCCCC2)c1 (centres unmarked) [Example 12, N-(1-cyclohexenylmethyl 2-pyrrolidinylmethyl) 2,3-dimethoxy 5-methylsulphamoyl benzamide] | 0.00115 mg/kg | 57.8 to 62 mg/kg | 540 to 560 mg/kg | 198 to 200 mg/kg | 297 to 319 mg/kg | 4 mg/kg | 1.5 mg/kg | ED50 [7]: 0.33 mg/kg
COc1ccc(S(=O)(=O)N(C)C)cc1C(=O)NCC1CCCN1CC1CC1 (centres unmarked) [Example 77149, N--(1cyclopropylmethyl 2pyrrolidinylmethyl)-2-methoxy-5-dimethylsulphamoyl benzamide] |  |  |  |  |  |  |  | ED50 (Prior Art Compounds, Results Reported in U.S. Pat No. 4,172,143) [6]: 0.04 mg/kg; ED50 (oral) [6]: 0.04 mg/kg
CCS(=O)(=O)c1cc(C(=O)NCC2CCCN2CC2CCCCC2)c(OC)cc1N (centres unmarked) [Example 8, N-(1-cyclohexylmethyl-2-pyrrolidinyl-methyl)-2-methoxy-4-amino-5-ethylsulphonyl-benzamide] | 0.002 mg/kg | 37 to 40.8 mg/kg | 348 to 380 mg/kg | 133 to 145 mg/kg | 336 to 342 mg/kg | 33 mg/kg | 15.4 mg/kg | 
CCS(=O)(=O)c1cc(C(=O)NCC2CCCN2CC2CC2)c(OC)cc1N (centres unmarked) [Example 2, N-(1-cyclopropyl-methyl-2-pyrrolidinyl-methyl)-2-methoxy-4-amino-5-ethylsulphonyl-benzamide] | 0.0004 mg/kg | 52.5 to 54.6 mg/kg | 1260 to 1320 mg/kg | 204 to 220 mg/kg | 380 to 396 mg/kg |  |  | ED50 [2]: 0.0009 mg/kg; ED50 [7]: 1.6 mg/kg; ED50 ([8]; Rattus norvegicus, ip): 2.4 mg/kg
COc1cc(S(N)(=O)=O)cc(C(=O)NCC2CCCN2CC2=CCCCC2)c1OC (centres unmarked) [Example 6, N-(1-cyclohexenyl-methyl-2-pyrrolidylmethyl)-2,3-dimethoxy 5-sulphamoyl benzamide] | 0.0028 mg/kg |  |  |  |  | 40 mg/kg |  | mortality ([3]; ip, I.P., at 240 mg/kg, read-out: 60% at 240 mg/kg (acute toxicity)): 60%; ED50 [7]: 2.6 mg/kg
COc1ccc(S(N)(=O)=O)cc1C(=O)NCC1CCCN1CC1CC1 (centres unmarked) [SLC-036, N--(1cyclopropylmethyl 2pyrrolidinylmethyl)-2-methoxy-5-sulphamoyl benzamide, reference compound] |  |  |  |  |  |  |  | % antagonism to chewing stereotypes induced by apomorphine [4]: 0%; % antagonism to chewing stereotypes induced by dexamphetamine [5]: 0%; ED50 (Prior Art Compounds, Results Reported in U.S. Pat No. 4,172,143) [6]: 0.037 mg/kg; ED50 (oral) [6]: 0.037 mg/kg
COc1cc2[nH]nnc2cc1C(=O)NCC1CCCN1CC1=CCCCC1 (centres unmarked) [Example 22, N-(1-cyclohexenylmethyl 2-pyrrolidinylmethyl) 2-methoxy 4,5-azimido benzamide] | 0.002 mg/kg |  |  |  |  |  |  | 
CNS(=O)(=O)c1ccc(OC)c(C(=O)NCC2CCCN2CC2=CCCCC2)c1 (centres unmarked) [Example 15, N-(1-cyclohexenylmethyl 2-pyrrolidinylmethyl) 2-methoxy 5-methylsulphamoyl benzamide] | 0.00021 mg/kg | 44.2 to 46.5 mg/kg | 540 to 558 mg/kg | 204 to 208 mg/kg | 462 to 494 mg/kg | 1.22 mg/kg | 0.78 mg/kg | ED50 [2]: 0.0011 mg/kg
CC[S+]([O-])c1cc(C(=O)NCC2CCCN2CC2CC2)c(OC)cc1N (centres unmarked) [Example 1, N-(1-cyclopropylmethyl 2-pyrrolidinylmethyl)-2-methoxy 4-amino 5-ethylsulphinyl benzamide] | 0.0007 mg/kg |  |  |  |  |  |  | 
